Read-outs that look alike come from different tables or passages of the source.
What was measured:
[1] = system: Rat2 fibroblasts stably transformed with v-Src/Hu c-Src fusion gene; assay: Anchorage independent Src-transformed fibroblast proliferation assay; type: cell-based, rat; conditions: for inhibition at 100 µM: Rat2, Table 1, read-out: Src cells % inh at 100 μM
Procedure: Anchorage Independent Src-Transformed Fibroblast Proliferation Assay Rat2 fibroblasts stably transformed with a plasmid containing a CMV promotor controlled v-Src/Hu c-Src fusion gene in which the catalytic domain of human c-Src was inserted in place of the v-Src catalytic domain in the v-Src gene are used for the measurement of src dependent suspension growth. […] Multiple entries for a given compound indicate that it was tested multiple times.

[2] = Rattus norvegicus, Rat2, 120 h, Table 1, suspension growth, MTS readout Day 5, read-out: Src cells IC50
[3] = Table 1, suspension growth, MTS readout Day 5, read-out: Src cells IC50

SMILES	IC50 [1, 2]	melting point	inhibition at 100 µM ([1]; Rattus norvegicus, at 100 μM)	also measured
COc1cc(Nc2c(C#N)cnc3cc(-c4cccc(CN5CCOCC5)c4)sc23)c(Cl)cc1Cl [Example 26, 7-[(2,4-Dichloro-5-methoxyphenyl)amino]-2-[3-(morpholin-4-ylmethyl)phenyl]thieno[3,2-b]pyridine-6-carbonitrile]	1 µM	205 to 207 °C		
COc1cc(Nc2c(C#N)cnc3sc(-c4ccc(C=O)cc4)cc23)c(Cl)cc1Cl [Example 27, 4-[(2,4-Dichloro-5-methoxyphenyl)amino]-2-(4-formylphenyl)thieno[2,3-b]pyridine-5-carbonitrile]		> 240 °C	19%	Src cells % inh at 100 μM ([1]; Table 1, at 100 μM): 28%
COc1cc(Nc2c(C#N)cnc3sc(CCCCO)cc23)cc(OC)c1OC [Example 30, 2-(4-Hydroxybutyl)-4-[(3,4,5-trimethoxyphenyl)amino]-thieno[2,3-b]pyridine-5-carbonitrile]	23 µM	125 to 127 °C		IC50 [1, 3]: 25 µM
COc1cc(Nc2c(C#N)cnc3cc(C#C[Si](C)(C)C)sc23)c(Cl)cc1Cl [Example 32, 7-[(2,4-Dichloro-5-methoxyphenyl)amino]-2-[(trimethylsilyl)ethynyl]thieno[3,2-b]pyridine-6-carbonitrile]		169 to 171 °C		IC50 ([1]; Rattus norvegicus, Rat2, 120 h, read-out: Src cells IC50 μM, Table 1, suspension growth, MTS readout Day 5): 1.5 µM
C#Cc1cc2ncc(C#N)c(Nc3cc(OC)c(Cl)cc3Cl)c2s1 [Example 33, 7-[(2,4-Dichloro-5-methoxyphenyl)amino]-2-ethynylthieno[3,2-b]pyridine-6-carbonitrile]	0.88 µM	198 to 200 °C		
COc1cc(Nc2c(C#N)cnc3cc(C#Cc4ccncc4)sc23)c(Cl)cc1Cl [Example 34, 7-[(2,4-Dichloro-5-methoxyphenyl)amino]-2-(pyridin-4-ylethynyl)thieno[3,2-b]pyridine-6-carbonitrile]	8.6 µM	221 to 223 °C		
COc1cc(Nc2c(C#N)cnc3cc(C#Cc4cccnc4)sc23)c(Cl)cc1Cl [Example 35, 7-[(2,4-Dichloro-5-methoxyphenyl)amino]-2-(pyridin-3-ylethynyl)thieno[3,2-b]pyridine-6-carbonitrile]	0.98 µM	249 to 250 °C		
COc1cc(Nc2c(C#N)cnc3cc(-c4csc(C5OCCO5)c4)sc23)c(Cl)cc1Cl [Example 36, 7-[(2,4-Dichloro-5-methoxyphenyl)amino]-2-[5-(1,3-dioxolan-2-yl)thien-3-yl]thieno[3,2-b]pyridine-6-carbonitrile]	1.6 µM	219 to 221 °C		
COc1cc(Nc2c(C#N)cnc3cc(-c4csc(C=O)c4)sc23)c(Cl)cc1Cl [Example 37, 7-[(2,4-Dichloro-5-methoxyphenyl)amino]-2-(5-formylthien-3-yl)thieno[3,2-b]pyridine-6-carbonitrile]	1.1 µM	259 to 261 °C		
COc1cc(Nc2c(C#N)cnc3cc(-c4ccc(CN5CCC(O)CC5)cc4)sc23)c(Cl)cc1Cl [Example 40, 7-[(2,4-Dichloro-5-methoxyphenyl)amino]-2-{4-[(4-hydroxypiperidin-1-yl)methyl]phenyl}thieno[3,2-b]pyridine-6-carbonitrile]	0.71 µM	149 to 150 °C		IC50 [1, 3]: 0.43 µM
COc1cc(Nc2c(C#N)cnc3cc(-c4ccc(CO)cc4)sc23)c(Cl)cc1Cl [Example 41, 7-[(2,4-Dichloro-5-methoxyphenyl)amino]-2-[4-(hydroxymethyl)phenyl]thieno[3,2-b]pyridine-6-carbonitrile]	0.56 µM	239 to 240 °C		
N#Cc1cnc2cc(I)sc2c1Nc1ccc(Oc2ccccc2)cc1 [Example 42, 2-Iodo-7-[(4-phenoxyphenyl)amino]thieno[3,2-b]pyridine-6-carbonitrile]		260 to 262 °C	5%	
N#Cc1cnc2cc(-c3ccc(C=O)cc3)sc2c1Nc1ccc(Oc2ccccc2)cc1 [Example 43, 2-(4-Formylphenyl)-7-[(4-phenoxyphenyl)amino]thieno[3,2-b]pyridine-6-carbonitrile]		230 to 232 °C	4%	
CN1CCN(Cc2ccc(-c3cc4ncc(C#N)c(Nc5ccc(Oc6ccccc6)cc5)c4s3)cc2)CC1 [Example 44, 2-[4-(4-Methylpiperazin-1-ylmethyl)phenyl]-7-[(4-phenoxyphenyl)amino]thieno[3,2-b]pyridine-6-carbonitrile]	2.4 µM	199 to 201 °C		
N#Cc1cnc2cc(-c3ccc(CN4CCOCC4)cc3)sc2c1Nc1ccc(Oc2ccccc2)cc1 [Example 45, 2-[4-(Morpholin-4-ylmethyl)phenyl]-7-[(4-phenoxyphenyl)amino]thieno[3,2-b]pyridine-6-carbonitrile]		254 to 256 °C	2%	
N#Cc1cnc2cc(-c3ccc(CO)cc3)sc2c1Nc1ccc(Oc2ccccc2)cc1 [Example 46, 2-[4-(Hydroxymethyl)phenyl]-7-[(4-phenoxyphenyl)amino]thieno[3,2-b]pyridine-6-carbonitrile]		225 to 228 °C	26%	
COc1cc(Nc2c(C#N)cnc3cc(I)sc23)cc(OC)c1OC [Example 47, 2-Iodo-7-[(3,4,5-trimethoxyphenyl)amino]thieno[3,2-b]pyridine-6-carbonitrile]		254 to 256 °C	74%	
N#Cc1cnc2cc(Br)sc2c1Nc1ccc(Oc2ccccc2)cc1 [Example 48, 2-Bromo-7-[(4-phenoxyphenyl)amino]thieno[3,2-b]pyridine-6-carbonitrile]		248 to 250 °C	30%	
N#Cc1cnc2cc(/C=C/c3ccncc3)sc2c1Nc1ccc(Oc2ccccc2)cc1 [Example 49, 7-[(4-Phenoxyphenyl)amino]-2-[(E)-2-pyridin-4-ylethenyl]thieno[3,2-b]pyridine-6-carbonitrile]		240 to 241 °C	14%	
COc1cc(Nc2c(C#N)cnc3cc(/C=C/C(=O)OC(C)(C)C)sc23)c(Cl)cc1Cl [Example 50, tert-Butyl (2E)-3-{6-cyano-7-[(2,4-dichloro-5-methoxyphenyl)amino]thieno[3,2-b]pyridin-2-yl}prop-2-enoate]	7.4 µM	224 °C (dec.)		
COc1cc(Nc2c(C#N)cnc3sc(C#CCN4CCN(C)CC4)cc23)c(Cl)cc1Cl [Example 51, 4-[(2,4-Dichloro-5-methoxyphenyl)amino]-2-[3-(4-methylpiperazin-1-yl)prop-1-ynyl]thieno[2,3-b]pyridine-5-carbonitrile]	9.9 µM	175 °C (dec.)		
COc1cc(Nc2c(C#N)cnc3sc(C#Cc4cccnc4)cc23)c(Cl)cc1Cl [Example 52, 4-[(2,4-Dichloro-5-methoxyphenyl)amino]-2-(pyridin-3-ylethynyl)thieno[2,3-b]pyridine-5-carbonitrile]		191 °C (dec.)	61%	
COc1cc(Nc2c(C#N)cnc3cc(-c4cnc(C=O)n4C)sc23)c(Cl)cc1Cl [Example 54, 7-[(2,4-Dichloro-5-methoxyphenyl)amino]-2-(2-formyl-1-methyl-1H-imidazol-5-yl)thieno[3,2-b]pyridine-6-carbonitrile]	1.51 µM	225 to 227 °C		IC50 [1, 3]: 1.01 µM
COc1cc(Nc2c(C#N)cnc3cc(-c4ccc(C=O)cc4)sc23)cc(OC)c1OC [Example 55, 2-(4-Formylphenyl)-7-[(3,4,5-trimethoxyphenyl)amino]thieno[3,2-b]pyridine-6-carbonitrile]		268 to 270 °C	97%	
COc1cc(Nc2c(C#N)cnc3cc(/C=C/C(=O)N4CCN(C)CC4)sc23)c(Cl)cc1Cl [Example 56, 7-[(2,4-Dichloro-5-methoxyphenyl)amino]-2-[(1E)-3-(4-methylpiperazin-1-yl)-3-oxoprop-1-enyl]thieno[3,2-b]pyridine-6-carbonitrile]	3.93 µM	218 to 220 °C		IC50 [1, 3]: 2.2 µM
COc1cc(Nc2c(C#N)cnc3cc(C#CCN4CCN(C)CC4)sc23)cc(OC)c1OC [Example 57, 2-[3-(4-Methylpiperazin-1-yl)prop-1-ynyl]-7-[(3,4,5-trimethoxyphenyl)amino]thieno[3,2-b]pyridine-6-carbonitrile]		180 to 182 °C	70%	
COc1cc(Nc2c(C#N)cnc3cc(-c4ccc(CN5CCN(Cc6ccccn6)CC5)cc4)sc23)c(Cl)cc1Cl [Example 124, 7-[(2,4-dichloro-5-methoxyphenyl)amino]-2-(4-{[4-(pyridin-2-ylmethyl)piperazin-1-yl]methyl}phenyl)thieno[3,2-b]pyridine-6-carbonitrile]		105 to 107 °C		IC50 ([1]; Rattus norvegicus, Rat2, Table 3, read-out: Src Cells IC50 μM or % inhib at 10 μM (IC50 values)): 0.914 µM; IC50 ([1]; Table 3, read-out: Src Cells IC50 μM or % inhib at 10 μM (IC50 values)): 0.576 µM
